# Reference: ChEMBL document CHEMBL4270602, “Design, synthesis, docking studies and biological screening of 2-thiazolyl substituted -2,3-dihydro-1H-naphtho[1,2-e][1,3]oxazines as potent HIV-1 reverse transcriptase inhibitors” (Eur J Med Chem, 2018)
# Columns and labels:
# [1] = biological target: Human immunodeficiency virus type 1 reverse transcriptase (Human immunodeficiency virus 1, UniProt Q72547); experiment: Inhibition of recombinant HIV-1 reverse transcriptase RNA-dependent DNA polymerase activity using poly(rA)/oligo(dT)16 as template/primer preincubated for 5 to 10 mins followed by template/primer addition and measured after 16 hrs by colorimetric assay
# [2] = Cytotoxicity against human CEM-GFP cells after 48 hrs by MTT assay; format: cell-based
# [3] = system: Human immunodeficiency virus 1; experiment: Antiviral activity against Human immunodeficiency virus 1 NL4-3 infected in human CEM-GFP cells after 7 days by p24 ELISA; format: functional, organism-based; settings: Human immunodeficiency virus 1, NL4-3, CEM-GFP, 168 h
# [4] = Therapeutic index, ratio of CC50 for human CEM-GFP cells to IC50 for HIV-1 NL4-3 infected in human CEM-GFP cells; format: toxicity, cell-based; settings: read-out: Ratio CC50/IC50
# [5] = biological target: Human immunodeficiency virus type 1 reverse transcriptase (Human immunodeficiency virus 1) (UniProt Q72547); experiment: Potency index, ratio of efavirenz EC50 to compound EC50 for inhibition of recombinant HIV-1 reverse transcriptase RNA-dependent DNA polymerase activity
# [6] = biological target: Human immunodeficiency virus type 1 reverse transcriptase (Human immunodeficiency virus 1) (UniProt Q72547); experiment: Potency index, ratio of inophyllym B EC50 to compound EC50 for inhibition of recombinant HIV-1 reverse transcriptase RNA-dependent DNA polymerase activity
Compound,EC50 [1],IC50 [3],Ratio EC50 [5],Ratio EC50 [6],CC50 at 48 h [2],selectivity ratio [4]
COc1ccc2c3c(ccc2c1)OCN(c1nc(-c2ccc(F)cc2)cs1)C3,192 nM,253 nM,,,24300 nM,96.2
COc1ccc2c3c(ccc2c1)OCN(c1nc(-c2ccc(C(F)(F)F)cc2)cs1)C3,66 nM,82.7 nM,2.5,,26300 nM,318
FC(F)(F)c1ccc(-c2csc(N3COc4ccc5ccccc5c4C3)n2)cc1,79 nM,95.5 nM,,3,24700 nM,258

# Now from value to compound, other results behind:
EC50 [1],IC50 [3],Ratio EC50 [5],Ratio EC50 [6],Compound,CC50 at 48 h [2],selectivity ratio [4]
,55.7 nM,,,Cc1cn([C@H]2C[C@H](N=[N+]=[N-])[C@@H](CO)O2)c(=O)[nH]c1=O [ZIDOVUDINE],13100 nM,236
225 nM,,,,C[C@H]1[C@H](O)c2c(c3c(c4c(-c5ccccc5)cc(=O)oc24)OC(C)(C)C=C3)O[C@@H]1C,,
210 nM,239 nM,,,Fc1ccc(-c2csc(N3COc4ccc5ccccc5c4C3)n2)cc1,25300 nM,106
,163 nM,,,O=C1Nc2ccc(Cl)cc2[C@@](C#CC2CC2)(C(F)(F)F)O1 [EFAVIRENZ],40500 nM,
